Legend:
[1] = biological target: Ephrin type-A receptor 7 (Homo sapiens) (UniProt Q15375); experiment: Residual activity of EPHA7 at 1 uM by microplate scintillation counting
[2] = biological target: LIM domain kinase 1 (Homo sapiens) (UniProt P53667); experiment: Residual activity of LIMK1 at 0.1 uM by microplate scintillation counting
[3] = biological target: Serine/threonine-protein kinase PAK 2 (Homo sapiens) (UniProt Q13177); experiment: Residual activity of PAK2 at 1 uM by microplate scintillation counting
Chain of Serine/threonine-protein kinase PAK 2 (Homo sapiens) (Q13177 whole entry): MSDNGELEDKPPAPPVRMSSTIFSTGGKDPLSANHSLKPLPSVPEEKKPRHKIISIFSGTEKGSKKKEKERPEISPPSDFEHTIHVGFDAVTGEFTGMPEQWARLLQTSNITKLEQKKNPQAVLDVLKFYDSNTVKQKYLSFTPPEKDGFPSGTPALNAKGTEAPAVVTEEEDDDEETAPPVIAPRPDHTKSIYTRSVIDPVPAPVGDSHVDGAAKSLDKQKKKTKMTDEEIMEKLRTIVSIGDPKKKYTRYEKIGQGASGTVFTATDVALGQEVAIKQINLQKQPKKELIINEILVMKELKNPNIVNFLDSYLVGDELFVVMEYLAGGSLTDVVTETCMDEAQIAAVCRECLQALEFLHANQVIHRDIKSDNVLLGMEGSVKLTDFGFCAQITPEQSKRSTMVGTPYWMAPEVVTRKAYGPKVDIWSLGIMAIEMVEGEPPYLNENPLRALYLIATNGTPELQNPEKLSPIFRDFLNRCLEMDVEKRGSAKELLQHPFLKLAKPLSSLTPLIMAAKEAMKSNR

[4] = biological target: Rho-associated protein kinase 1 (Homo sapiens) (UniProt Q13464); experiment: Residual activity of ROCK1 at 1 uM by microplate scintillation counting
Chain of Rho-associated protein kinase 1 (Homo sapiens) (Q13464 2-1354 limits assumed): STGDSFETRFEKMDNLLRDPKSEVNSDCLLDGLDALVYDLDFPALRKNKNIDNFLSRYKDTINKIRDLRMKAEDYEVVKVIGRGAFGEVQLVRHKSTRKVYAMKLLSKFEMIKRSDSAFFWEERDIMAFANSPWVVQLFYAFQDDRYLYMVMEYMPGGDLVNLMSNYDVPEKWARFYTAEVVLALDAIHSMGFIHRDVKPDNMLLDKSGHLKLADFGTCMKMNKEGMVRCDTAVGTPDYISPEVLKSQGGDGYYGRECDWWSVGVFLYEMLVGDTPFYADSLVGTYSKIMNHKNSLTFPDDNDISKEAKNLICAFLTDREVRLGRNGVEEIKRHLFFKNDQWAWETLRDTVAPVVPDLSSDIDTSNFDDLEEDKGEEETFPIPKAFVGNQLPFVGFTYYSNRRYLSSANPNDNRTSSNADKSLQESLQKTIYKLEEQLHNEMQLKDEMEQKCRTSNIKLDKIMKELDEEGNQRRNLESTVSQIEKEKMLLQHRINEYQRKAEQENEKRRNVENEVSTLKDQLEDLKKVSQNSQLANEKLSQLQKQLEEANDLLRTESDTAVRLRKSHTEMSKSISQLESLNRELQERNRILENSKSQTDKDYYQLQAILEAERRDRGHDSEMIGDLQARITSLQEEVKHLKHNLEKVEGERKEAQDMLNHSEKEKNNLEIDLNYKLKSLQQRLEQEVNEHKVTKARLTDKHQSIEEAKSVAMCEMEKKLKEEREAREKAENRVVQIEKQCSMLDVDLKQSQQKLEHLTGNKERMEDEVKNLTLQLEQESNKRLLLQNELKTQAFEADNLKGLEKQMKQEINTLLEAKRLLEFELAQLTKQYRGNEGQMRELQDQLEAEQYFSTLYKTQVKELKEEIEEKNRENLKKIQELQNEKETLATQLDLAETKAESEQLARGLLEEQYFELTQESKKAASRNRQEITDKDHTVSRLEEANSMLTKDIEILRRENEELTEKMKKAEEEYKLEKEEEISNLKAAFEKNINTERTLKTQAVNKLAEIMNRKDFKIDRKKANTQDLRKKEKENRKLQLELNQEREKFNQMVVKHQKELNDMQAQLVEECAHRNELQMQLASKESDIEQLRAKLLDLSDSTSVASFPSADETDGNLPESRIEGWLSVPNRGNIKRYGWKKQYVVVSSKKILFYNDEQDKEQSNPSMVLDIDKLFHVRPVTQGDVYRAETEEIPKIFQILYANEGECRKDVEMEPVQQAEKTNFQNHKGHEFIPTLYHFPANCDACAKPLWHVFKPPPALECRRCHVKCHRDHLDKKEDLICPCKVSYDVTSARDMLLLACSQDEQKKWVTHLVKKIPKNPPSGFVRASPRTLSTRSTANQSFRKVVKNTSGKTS

[5] = biological target: Wee1-like protein kinase (Homo sapiens) (UniProt P30291); experiment: Residual activity of WEE1 at 1 uM by microplate scintillation counting
Chain of Wee1-like protein kinase (Homo sapiens) (P30291 whole entry, looked up): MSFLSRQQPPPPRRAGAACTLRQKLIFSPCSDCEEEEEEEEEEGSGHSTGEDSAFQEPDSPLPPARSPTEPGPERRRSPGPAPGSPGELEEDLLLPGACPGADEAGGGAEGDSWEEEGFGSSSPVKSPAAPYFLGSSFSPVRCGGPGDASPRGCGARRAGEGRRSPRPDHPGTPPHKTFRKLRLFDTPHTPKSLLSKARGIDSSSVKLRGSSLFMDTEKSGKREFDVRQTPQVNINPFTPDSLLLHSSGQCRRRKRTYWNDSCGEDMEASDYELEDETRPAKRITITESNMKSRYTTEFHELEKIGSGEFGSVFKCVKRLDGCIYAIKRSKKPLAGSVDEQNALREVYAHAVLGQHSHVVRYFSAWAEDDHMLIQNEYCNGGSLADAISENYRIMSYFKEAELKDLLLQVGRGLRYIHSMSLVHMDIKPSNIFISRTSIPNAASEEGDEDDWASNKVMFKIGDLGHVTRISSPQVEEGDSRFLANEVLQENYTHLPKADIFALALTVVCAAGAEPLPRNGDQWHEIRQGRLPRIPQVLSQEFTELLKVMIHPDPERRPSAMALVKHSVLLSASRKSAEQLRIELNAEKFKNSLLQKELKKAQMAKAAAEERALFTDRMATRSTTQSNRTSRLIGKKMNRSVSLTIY

[6] = biological target: Tyrosine-protein kinase Fes/Fps (Homo sapiens) (UniProt P07332); experiment: Residual activity of FES at 10 uM by microplate scintillation counting
[7] = biological target: ALK tyrosine kinase receptor (Homo sapiens) (UniProt Q9UM73); experiment: Residual activity of ALK at 10 uM by microplate scintillation counting
[8] = test system: Epidermal growth factor receptor (Homo sapiens), P00533 [T790M]; experiment: Residual activity of EGFR T790M mutant at 0.1 uM by microplate scintillation counting
[9] = biological target: T1, Protein kinase C epsilon type (Homo sapiens) (UniProt Q02156); experiment: Residual activity of PKCepsilon at 10 uM by microplate scintillation counting
T1 sequence (whole entry): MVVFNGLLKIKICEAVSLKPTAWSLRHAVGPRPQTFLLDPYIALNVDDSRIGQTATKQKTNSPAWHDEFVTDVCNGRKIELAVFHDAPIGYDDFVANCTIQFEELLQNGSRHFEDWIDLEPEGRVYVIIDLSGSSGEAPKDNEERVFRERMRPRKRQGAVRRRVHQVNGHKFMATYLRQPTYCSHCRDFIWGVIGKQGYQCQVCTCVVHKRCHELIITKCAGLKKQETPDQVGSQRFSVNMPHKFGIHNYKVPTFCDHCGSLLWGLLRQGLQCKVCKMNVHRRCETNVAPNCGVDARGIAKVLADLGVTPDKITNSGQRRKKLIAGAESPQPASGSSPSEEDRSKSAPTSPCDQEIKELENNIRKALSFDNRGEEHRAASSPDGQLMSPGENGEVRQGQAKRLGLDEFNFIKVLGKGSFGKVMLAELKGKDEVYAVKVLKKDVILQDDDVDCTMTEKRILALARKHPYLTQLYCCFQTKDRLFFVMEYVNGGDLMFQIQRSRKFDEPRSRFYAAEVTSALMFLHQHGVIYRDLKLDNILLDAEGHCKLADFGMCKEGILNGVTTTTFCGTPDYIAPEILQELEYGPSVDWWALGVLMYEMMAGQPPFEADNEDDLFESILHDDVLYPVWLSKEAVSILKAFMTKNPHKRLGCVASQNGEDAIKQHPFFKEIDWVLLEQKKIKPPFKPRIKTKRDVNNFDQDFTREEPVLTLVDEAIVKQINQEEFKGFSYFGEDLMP

[10] = test system: Tyrosine-protein kinase ABL1 (Homo sapiens), P00519 [T315I]; experiment: Residual activity of ABL1 T315I mutant at 0.1 uM by microplate scintillation counting
[11] = biological target: Serine/threonine-protein kinase Nek6 (Homo sapiens) (UniProt Q9HC98); experiment: Residual activity of NEK6 at 0.1 uM by microplate scintillation counting
Chain of Serine/threonine-protein kinase Nek6 (Homo sapiens) (Q9HC98 whole entry): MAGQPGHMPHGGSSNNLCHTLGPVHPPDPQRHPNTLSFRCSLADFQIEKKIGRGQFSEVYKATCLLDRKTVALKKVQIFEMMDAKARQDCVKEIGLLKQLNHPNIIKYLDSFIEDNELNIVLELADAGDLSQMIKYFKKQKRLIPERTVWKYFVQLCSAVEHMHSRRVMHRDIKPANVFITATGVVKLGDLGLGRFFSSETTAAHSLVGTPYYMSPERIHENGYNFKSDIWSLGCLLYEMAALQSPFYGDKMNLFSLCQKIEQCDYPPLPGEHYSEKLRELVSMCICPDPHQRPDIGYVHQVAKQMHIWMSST

[12] = biological target: Serine/threonine-protein kinase pim-1 (Homo sapiens) (UniProt P11309); experiment: Residual activity of PIM1 at 0.1 uM by microplate scintillation counting
Chain of Serine/threonine-protein kinase pim-1 (Homo sapiens) (P11309 whole entry, looked up): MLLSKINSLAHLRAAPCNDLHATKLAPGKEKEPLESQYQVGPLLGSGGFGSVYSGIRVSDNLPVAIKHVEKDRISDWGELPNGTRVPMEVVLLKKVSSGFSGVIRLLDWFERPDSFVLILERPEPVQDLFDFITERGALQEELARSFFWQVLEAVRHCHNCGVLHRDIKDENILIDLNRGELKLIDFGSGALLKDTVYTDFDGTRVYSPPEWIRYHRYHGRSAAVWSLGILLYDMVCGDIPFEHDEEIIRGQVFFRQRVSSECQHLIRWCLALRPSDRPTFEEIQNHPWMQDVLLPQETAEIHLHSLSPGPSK

[13] = biological target: T2, Serine/threonine-protein kinase TAO2 (Homo sapiens) (UniProt Q9UL54); experiment: Residual activity of TAOK2 at 0.1 uM by microplate scintillation counting
T2 sequence (whole entry): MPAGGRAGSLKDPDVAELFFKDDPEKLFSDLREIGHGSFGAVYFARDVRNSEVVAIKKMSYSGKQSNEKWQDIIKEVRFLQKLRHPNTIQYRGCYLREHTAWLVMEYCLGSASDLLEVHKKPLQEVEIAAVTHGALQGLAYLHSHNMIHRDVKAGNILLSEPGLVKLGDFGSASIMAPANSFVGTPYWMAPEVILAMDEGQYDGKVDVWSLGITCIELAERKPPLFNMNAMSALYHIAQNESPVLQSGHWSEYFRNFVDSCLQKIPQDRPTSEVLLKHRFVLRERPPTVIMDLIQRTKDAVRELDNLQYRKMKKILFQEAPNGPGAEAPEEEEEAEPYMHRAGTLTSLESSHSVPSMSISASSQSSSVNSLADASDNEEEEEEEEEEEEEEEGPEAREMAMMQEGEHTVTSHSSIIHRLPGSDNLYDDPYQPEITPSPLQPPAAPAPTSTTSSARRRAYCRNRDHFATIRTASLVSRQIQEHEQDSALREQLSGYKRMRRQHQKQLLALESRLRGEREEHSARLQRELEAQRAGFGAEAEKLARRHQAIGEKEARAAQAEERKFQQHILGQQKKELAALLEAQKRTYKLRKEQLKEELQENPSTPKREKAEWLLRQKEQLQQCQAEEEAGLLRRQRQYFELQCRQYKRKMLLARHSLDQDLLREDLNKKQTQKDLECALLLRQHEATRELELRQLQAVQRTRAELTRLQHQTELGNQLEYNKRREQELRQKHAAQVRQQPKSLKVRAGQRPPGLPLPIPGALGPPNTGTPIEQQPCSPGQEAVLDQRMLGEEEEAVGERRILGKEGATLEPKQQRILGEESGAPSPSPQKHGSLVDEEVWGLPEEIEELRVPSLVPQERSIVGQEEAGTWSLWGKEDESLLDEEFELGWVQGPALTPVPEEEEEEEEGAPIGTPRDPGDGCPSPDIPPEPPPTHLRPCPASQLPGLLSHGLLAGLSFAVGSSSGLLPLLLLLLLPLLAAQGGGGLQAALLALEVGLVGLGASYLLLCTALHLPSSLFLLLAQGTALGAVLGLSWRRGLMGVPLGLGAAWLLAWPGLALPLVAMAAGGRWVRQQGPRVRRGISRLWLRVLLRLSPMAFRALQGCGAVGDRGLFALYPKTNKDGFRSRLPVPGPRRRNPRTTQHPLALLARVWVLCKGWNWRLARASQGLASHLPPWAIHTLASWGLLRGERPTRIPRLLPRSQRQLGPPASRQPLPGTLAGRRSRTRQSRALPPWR

[14] = biological target: Vascular endothelial growth factor receptor 1 (Homo sapiens) (UniProt P17948); experiment: Residual activity of VEGFR1 at 0.1 uM by microplate scintillation counting
Chain of Vascular endothelial growth factor receptor 1 (Homo sapiens) (P17948 whole entry): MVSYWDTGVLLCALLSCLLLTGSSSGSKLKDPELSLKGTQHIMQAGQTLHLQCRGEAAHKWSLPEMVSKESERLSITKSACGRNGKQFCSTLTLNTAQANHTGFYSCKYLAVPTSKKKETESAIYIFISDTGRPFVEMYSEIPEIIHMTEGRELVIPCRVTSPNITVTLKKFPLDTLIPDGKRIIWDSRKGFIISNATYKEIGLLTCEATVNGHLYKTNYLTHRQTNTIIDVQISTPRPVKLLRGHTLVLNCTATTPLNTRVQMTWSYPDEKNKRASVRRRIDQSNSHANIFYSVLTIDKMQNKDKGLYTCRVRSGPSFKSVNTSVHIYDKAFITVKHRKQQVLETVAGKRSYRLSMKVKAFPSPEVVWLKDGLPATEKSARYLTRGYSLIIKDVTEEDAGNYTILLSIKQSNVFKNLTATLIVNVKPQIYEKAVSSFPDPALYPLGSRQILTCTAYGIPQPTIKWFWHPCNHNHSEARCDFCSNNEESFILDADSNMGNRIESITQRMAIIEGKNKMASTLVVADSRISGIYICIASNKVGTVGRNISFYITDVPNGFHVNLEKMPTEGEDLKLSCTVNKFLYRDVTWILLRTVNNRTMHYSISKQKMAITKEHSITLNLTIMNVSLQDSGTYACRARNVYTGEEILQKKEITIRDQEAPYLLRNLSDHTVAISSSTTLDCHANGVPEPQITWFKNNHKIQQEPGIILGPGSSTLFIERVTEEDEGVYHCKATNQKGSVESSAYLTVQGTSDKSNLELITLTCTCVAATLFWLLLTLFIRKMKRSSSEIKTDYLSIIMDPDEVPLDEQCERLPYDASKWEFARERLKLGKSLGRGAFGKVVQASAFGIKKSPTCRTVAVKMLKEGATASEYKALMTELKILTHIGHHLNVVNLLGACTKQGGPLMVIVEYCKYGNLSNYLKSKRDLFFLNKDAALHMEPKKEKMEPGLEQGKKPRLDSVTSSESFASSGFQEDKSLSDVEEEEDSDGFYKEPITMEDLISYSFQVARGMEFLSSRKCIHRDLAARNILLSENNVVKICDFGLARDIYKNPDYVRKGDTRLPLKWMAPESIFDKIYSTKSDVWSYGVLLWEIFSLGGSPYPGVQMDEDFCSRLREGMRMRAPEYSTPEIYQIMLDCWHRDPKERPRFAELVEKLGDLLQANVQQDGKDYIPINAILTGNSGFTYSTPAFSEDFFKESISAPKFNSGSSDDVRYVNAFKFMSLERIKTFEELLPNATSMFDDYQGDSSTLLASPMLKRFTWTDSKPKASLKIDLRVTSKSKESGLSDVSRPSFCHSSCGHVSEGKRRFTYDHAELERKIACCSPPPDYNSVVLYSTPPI

Row | residual activity [1] | residual activity [2] | residual activity [3] | residual activity [4] | residual activity [5] | residual activity [6] | residual activity [7] | residual activity [8] | residual activity [9] | residual activity [10] | residual activity [11] | residual activity [12] | residual activity [13] | residual activity [14] | SMILES
1 | 114% | 76% | 102% | 93% | 84% | 208% | 414% | 68% | 142% | 98% | 93% | 95% | 102% | 96% | COc1cc2c(Oc3ccc(-c4nc5ccccc5s4)cc3)ncnc2cc1OCCCN1CCCC1
2 | 102% | 68% | 124% | 102% | 99% | 153% | 329% | 97% | 128% | 96% | 93% | 100% | 92% | 93% | COc1cc2c(Oc3ccc(-c4nc5ccccc5s4)cc3)ncnc2cc1OCCCN1CCN(C)CC1
3 | 94% | 77% | 103% | 105% | 101% | 112% | 180% | 85% | 135% | 100% | 98% | 76% | 108% | 95% | COc1cc2c(Oc3ccc(-c4nc5ccccc5s4)cc3F)ncnc2cc1OCCCN1CCN(C)CC1
